According to the CombiSolv-Exp solvation set (Vermeire and Green 2021):

Experiment: solvent given as SMILES

C#CC
Conditions	solvation free energy, 298 K [kJ/mol]
in C1CCC2CCCCC2C1	-6.23
in C1COCCO1	-10.3
in CC1COC(=O)O1	-8.54
in CC(C)=O	-10.4
in CC(C)CC(C)(C)C	-6.95
in CCCCCCCCCCCCCCCC	-5.86
in CN1CCCC1=O	-10.3
in CN(C)C=O	-10.4
in CN(C)P(=O)(N(C)C)N(C)C	-10.9
in COC(C)=O	-10.5
in COCCOCCOCCOC	-8.49
in CS(C)=O	-8.95
in Nc1ccccc1	-8.41
in O	-2.01
in OCCCOCCCO	-6.4
in OCCO	-5.1
in OCc1ccccc1	-7.41

C=CC(C)(CCC=C(C)C)OC(=O)CCC (stereo not given)
Conditions	solvation free energy, 298 K [kJ/mol]
in O	-14.1

CCCCCCCC(=O)c1c(C)[nH]n(-c2ccccc2)c1=O
Conditions	solvation free energy, 298 K [kJ/mol]
in O	-37

CC1=CCC2CC3C(C)CCC13C2(C)C (stereo not given)
Conditions	solvation free energy, 298 K [kJ/mol]
in O	3.26

O=O
Conditions	solvation free energy, 298 K [kJ/mol]
in Brc1ccccc1	4.85
in C1CCCCC1	3.14
in C1CCOC1	3.43
in C1COCCO1	4.6
in CC(C)(C)O	3.26
in CC(C)=O	3.18
in CC(C)CC(C)(C)C	2.13
in CC(C)CO	3.72
in CC(C)O	3.72
in CCC(C)=O	3.18
in CCC(C)O	3.81
in CCCC(C)=O	3.39
in CCCCC(C)=O	3.6
in CCCCCC	2.47
in CCCCCCC	2.68
in CCCCCCCC	2.93
in CCCCCCCCC	3.05
in CCCCCCCCCC	3.22
in CCCCCCCCCCC	3.31
in CCCCCCCCCCCC	3.47
in CCCCCCCCCCCCC	3.64
in CCCCCCCCCCCCCC	3.72
in CCCCCCCCCCCCCCC	3.85
in CCCCCCCCCCCCCCCC	3.93
in CCCCCCCCCCCO	4.6
in CCCCCCCCCCO	4.56
in CCCCCCCCCO	4.44
in CCCCCCCCO	4.35
in CCCCCCCO	4.27
in CCCCCCO	4.1
in CCCCCO	3.97
in CCCCO	3.89
in CCCCOCCCC	3.26
in CCCO	3.77
in CCCOCCC	2.72
in CCO	3.56
in CCOC(C)=O	3.77
in CCOCC	2.01
in CNC=O	4.69
in CO	3.43
in COC(C)=O	3.22
in Cc1ccc(C)cc1	3.47
in Cc1cccc(C)c1	3.56
in Cc1ccccc1C	3.68
in ClC(Cl)(Cl)Cl	2.97
in ClC(Cl)Cl	4.06
in ClCCCl	4.56
in ClCCl	3.77
in Clc1ccccc1	4.18
in Fc1ccccc1	2.34
in Ic1ccccc1	5.44
in O	8.62
in O=C1CCCC1	4.6
in O=C1CCCCC1	4.73

Cc1[nH]n(-c2ccccc2)c(=O)c1C(=O)c1ccccc1
Conditions	solvation free energy, 298 K [kJ/mol]
in O	-48.4

O=c1[nH]cc(Br)c(=O)[nH]1
Conditions	solvation free energy, 298 K [kJ/mol]
in O	-76

Cc1cccc(C)n1
Conditions	solvation free energy, 298 K [kJ/mol]
in CC(C)CC(C)(C)C	-22.1
in O	-19.2

CCC[N+](=O)[O-]
Conditions	solvation free energy, 298 K [kJ/mol]
in CC(C)CC(C)(C)C	-16.5
in CCCCCC	-16.9
in CCCCCCC	-16.6
in CCCCCCCC	-16.5
in CCCCCCCCCCCCCCCC	-15.9
in CCCCCCCCO	-18.6
in O	-14.1
in [2H]O[2H]	-14.4

O=[N+]([O-])c1ccc(CCl)cc1
Conditions	solvation free energy, 298 K [kJ/mol]
in Brc1ccccc1	-23.6
in CC(C)=O	-41.9
in CC(C)CCO	-34.9
in CC(C)CO	-34.5
in CCC(C)O	-34.6
in CCCC(C)O	-34.5
in CCCCCO	-35.1
in CCCCO	-35.5
in CCCCOC(C)=O	-40.5
in CCCO	-35.7
in CCOCC	-38.7
in O	-21.5

Clc1ccc(-c2ccc(Cl)cc2Cl)cc1
Conditions	solvation free energy, 298 K [kJ/mol]
in CCCCCCCCO	-44.8
in O	-11.6

CN(C)c1ccccc1
Conditions	solvation free energy, 298 K [kJ/mol]
in CCCCCCCCCCCCCCCC	-26.8
in O	-14.4

CC(C)C#N
Conditions	solvation free energy, 298 K [kJ/mol]
in CCCCCCCCCCCCCCCC	-12.9
in CCCCCCCCO	-16.4
in O	-13.8
in [2H]O[2H]	-13.8

Nc1ccc(-c2ccc(N)cc2)cc1
Conditions	solvation free energy, 298 K [kJ/mol]
in Cc1ccccc1C	-65.5

CC1=C(C)C2CCC1C2
Conditions	solvation free energy, 298 K [kJ/mol]
in O	2.22

COc1cc(Cc2cnc(N)nc2N)cc(OC)c1OC
Conditions	solvation free energy, 298 K [kJ/mol]
in C1CCOC1	-83.4
in CC(C)O	-80.5
in CCC(C)O	-81.3
in CCCCO	-81.5
in CCCO	-82.8
in CCO	-83
in CO	-86.1
